Earlier results, collected in patent US7208484B2, “Method of synthesizing 1alpha-hydroxy-2-methylene-19-nor-homopregnacalciferol” (Wisconsin Alumni Research Foundation, priority 2002, dated 2007).

What was measured:
[1] = in vivo
vitamin D receptors = biological target: T1, vitamin D receptors (Homo sapiens, UniProt P11473); conditions: compared with 1α,25-dihydroxyvitamin D3
T1 sequence (P11473 1-427): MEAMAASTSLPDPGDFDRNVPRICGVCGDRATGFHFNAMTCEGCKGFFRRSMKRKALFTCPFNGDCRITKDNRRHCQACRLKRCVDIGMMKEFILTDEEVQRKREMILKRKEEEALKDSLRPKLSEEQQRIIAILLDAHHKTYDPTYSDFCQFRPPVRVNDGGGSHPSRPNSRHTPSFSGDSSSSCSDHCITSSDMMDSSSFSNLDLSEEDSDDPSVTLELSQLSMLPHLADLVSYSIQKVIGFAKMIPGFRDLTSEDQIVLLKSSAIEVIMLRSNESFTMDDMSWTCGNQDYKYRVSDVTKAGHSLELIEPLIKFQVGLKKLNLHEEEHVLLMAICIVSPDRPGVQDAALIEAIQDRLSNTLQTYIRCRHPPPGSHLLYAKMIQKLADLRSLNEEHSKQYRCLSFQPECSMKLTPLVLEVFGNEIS

C=C1C(=CC=C2CCCC3(C)C2CCC3C(C)C)CC(O)CC1O (stereo not drawn) [1α-hydroxy-20-methyl-pregnacalciferol]
calcemic activity [1]: essentially devoid of calcemic activity | binding to the receptor (vitamin D receptors): comparable binding to the receptor as 1α,25-dihydroxyvitamin D3 | HL-60 cell differentiation ability (HL-60 cell): some HL-60 cell differentiation ability
